In ChEMBL document CHEMBL1136569, “Quinolone-based IMPDH inhibitors: introduction of basic residues on ring D and SAR of the corresponding mono, di and benzofused analogues” (Bioorg Med Chem Lett, 2003):

Assays:
CCRF-CEM = assay: Inhibitory activity against proliferation of CEM cell line; format: functional, cell-based, Homo sapiens
[1] = target: Inosine-5'-monophosphate dehydrogenase 2 (Homo sapiens, UniProt P12268); assay: Inhibitory activity against inosine monophosphate dehydrogenase IMPDH II
[2] = Inhibitory activity against proliferation of peripheral blood mononuclear cells; format: functional, Homo sapiens

SMILES	IC50 (CCRF-CEM; Homo sapiens, CCRF-CEM) [nM]	IC50 [1] [nM]	IC50 (CCRF-CEM; ccrf-cem) [nM]	IC50 ([2]; Homo sapiens) [nM]	IC50 [2] [nM]
COc1cc2nc(-c3ccc4c(c3)C(O)CCC4)cc(O)c2cc1-c1cnco1 (stereo not given)	3400	83	–	–	–
COc1cc2nc(-c3ccc4c(c3)C([N+](C)(C)C)CC4)cc(O)c2cc1-c1cnco1 (stereo not given)	> 10000	30	–	–	–
COc1cc2nc(-c3ccc4c(c3)C(N3CCOCC3)CC4)cc(O)c2cc1-c1cnco1 (stereo not given)	1100	20	–	–	–
COc1cc2nc(-c3ccc4c(c3)C(N(C)C)CCC4)cc(O)c2cc1-c1cnco1 (stereo not given)	370	15	–	–	–
COc1cc2nc(-c3ccc(C)c(N4CCCC4)c3)cc(O)c2cc1-c1cnco1	780	15	–	–	–
COCC(=O)N(C)C1CCc2ccc(-c3cc(O)c4cc(-c5cnco5)c(OC)cc4n3)cc21 (stereo not given)	1100	12	–	–	–
COc1cc2nc(-c3ccc4c(c3)C(N(C)C(=O)CN3CCOCC3)CC4)cc(O)c2cc1-c1cnco1 (stereo not given)	1800	18	–	–	–
COc1cc2nc(-c3ccc4c(c3)C(N(C)C(=O)Cn3ccnc3)CC4)cc(O)c2cc1-c1cnco1 (stereo not given)	> 10000	68	–	–	–
COc1cc2nc(-c3cccc(N4CCN(C)CC4)c3)cc(O)c2cc1-c1cnco1	1700	16	–	–	–
COc1cc(NC(=O)Nc2cccc(CNC(=O)O[C@H]3CCOC3)c2)ccc1-c1cnco1 [MERIMEPODIB]	–	–	–	170	–
COc1cc2nc(-c3ccc4c(c3)C(N(C)C)CC4)cc(O)c2cc1-c1cnco1 (single isomer, unassigned; enantiomer B)	–	< 5	550	–	320
COc1cc2nc(-c3ccc(N4CCOCC4)cc3)cc(O)c2cc1-c1cnco1	1100	21	–	–	–
COc1cc2nc(-c3ccc4c(c3)C(N(C)C)CC4)cc(O)c2cc1-c1cnco1 (single isomer, unassigned; Enantiomer A)	–	< 5	270	–	120
COc1cc2nc(-c3ccc(C)c(N4CCOCC4)c3)cc(O)c2cc1-c1cnco1	650	5	–	–	–
COc1c(C)c2c(c(O)c1C/C=C(\C)CCC(=O)O)C(=O)OC2 [MYCOPHENOLIC ACID]	–	–	–	600	–
COc1cc2nc(-c3ccc(OC)c(N4CCN(C)CC4)c3)cc(O)c2cc1-c1cnco1	10000	140	–	–	–
COc1cc2nc(-c3ccc4c(c3)C(N3CCCC3)CCO4)cc(O)c2cc1-c1cnco1 (stereo not given)	1400	33	–	–	–

Further lines, with some results ahead:

IC50 (CCRF-CEM; Homo sapiens, CCRF-CEM) [nM]	IC50 [1] [nM]	IC50 (CCRF-CEM; ccrf-cem) [nM]	SMILES	IC50 ([2]; Homo sapiens) [nM]	IC50 [2] [nM]
520	< 10	–	COc1cc2nc(-c3ccc4c(c3)C(=O)CCC4)cc(O)c2cc1-c1cnco1	–	–
–	6	290	COc1cc2nc(-c3ccc4c(c3)C(N(C)C)CC4)cc(O)c2cc1-c1cnco1 (stereo in doubt; 27)	–	–
700	15	–	COc1cc2nc(-c3ccc4c(c3)[C@@H](N(C)C)[C@H](OC)C4)cc(O)c2cc1-c1cnco1	–	–
4100	55	–	COc1cc2nc(-c3ccc4c(c3)CCC4N(C)C)cc(O)c2cc1-c1cnco1 (stereo not given)	–	–
720	21	–	COc1cc2nc(-c3ccc4c(c3)C(N(C)C)CCO4)cc(O)c2cc1-c1cnco1 (stereo not given)	–	–
710	< 5	–	COc1cc2nc(-c3ccc(C)c(OCC4CCCO4)c3)cc(O)c2cc1-c1cnco1 (stereo not given)	–	–
670	13	–	COc1cc2nc(-c3ccc4c(c3)C(N3CCCC3)CC4)cc(O)c2cc1-c1cnco1 (stereo not given)	–	–
600	< 5	–	COc1cc2nc(-c3ccc(C)c(OCCN4CCOCC4)c3)cc(O)c2cc1-c1cnco1	–	–
–	11	–	COc1cc2nc(-c3ccc4c(c3)C(OC(=O)N(C)C)CC4)cc(O)c2cc1-c1cnco1 (stereo not given)	–	–
1300	14	–	COc1cc2nc(-c3ccc4c(c3)N(C(C)=O)CCO4)cc(O)c2cc1-c1cnco1	–	–
2200	53	–	COc1cc2nc(-c3ccc(N4CCN(C)CC4)cc3)cc(O)c2cc1-c1cnco1	–	–
3100	28	–	COc1cc2nc(-c3ccc4c(c3)C(O)CC4)cc(O)c2cc1-c1cnco1 (stereo not given)	–	–
2700	25	–	COc1cc2nc(-c3cccc(N4CCCC4)c3)cc(O)c2cc1-c1cnco1	–	–
1100	26	–	COc1cc2nc(-c3ccc(C)c(N4CCN(C)CC4)c3)cc(O)c2cc1-c1cnco1	–	–
1100	14	–	COc1cc2nc(-c3ccc4c(c3)CN(C)C4)cc(O)c2cc1-c1cnco1	–	–
800	6	–	COc1cc2nc(-c3ccc4c(c3)C(N3CCC3)CC4)cc(O)c2cc1-c1cnco1 (stereo not given)	–	–
–	< 50	–	COc1cc2nc(-c3cccc(N4CCOCC4)c3)cc(O)c2cc1-c1cnco1	–	–
1600	12	–	CNC1CCc2ccc(-c3cc(O)c4cc(-c5cnco5)c(OC)cc4n3)cc21 (stereo not given)	–	–
1100	18	–	COc1cc2nc(-c3ccc4c(c3)C(N(C)C(C)=O)CC4)cc(O)c2cc1-c1cnco1 (stereo not given)	–	–
